{"source": "patent US10556860B2", "about": "“hTERT modulators and methods of use” (Arizona Board of Regents on Behalf of the University of …, priority 2015, dated 2020)", "system": "G146A 5-12 G-quadruplex", "assay": "CD kinetics, temperature-jump, G146A", "format": "biochemical, human", "conditions": "2 equiv", "method": "FIGS. 10A and 10B are a set of graphs showing (A) comparison of kinetics of initial folding rate of the WT 5-12 G-quadruplex with GTC365 and BRACO-19 by the temperature-jump method. (B) Enhanced initial folding rate of the 5-12 G-quadruplexes carrying different hTERT mutants by GTC365. The time-course CD signal of preheated oligo with compound or DMSO in a buffer containing 10 mM Tris-HCl (pH 7.5) and 5 mM KCl was monitored at 262 nm and 25° C.\nFor the kinetics analysis using the temperature-jump method, theoligo in a buffer containing 10 mM Tris-HCl (pH 7.5) was heated forl min at 95° C., and then a mixture of KCl and compound was addedand incubated for 1 min. Meanwhile, the CD cuvette was also heatedat 95° C. As soon as the sample in the CD cuvette at the hightemperature was placed in the CD chamber, a time-dependent CDsignal at 262 nm was recorded immediately. The initial folding ratewas determined by one-phase association curve fitting (eq 1) of thekinetics curve using GraphPad Prism 5: Y=Y0+(Plateau−Y0)*(1−e^−kx) (1) where Y is the CD signal at any time point x, Y0 is the Y value whentime (x) is zero, plateau is the Y value at infinite time, and k is the rateconstant.\nTo evaluate the comparative effects of GTC365 relative to BRACO-19 on the cooperative folding process, we carried out two different experiments. […]", "data": [{"smiles": "N=C(N)NCCCS(=O)(=O)Nc1ccc(Nc2c3ccccc3nc3cc([N+](=O)[O-])ccc23)cc1", "note": "[GTC365]", "values": [{"measurement": "increase of initial folding rate", "value": 0.054, "unit": "s⁻¹"}]}]}
